Reference: patent publication US20250223301A1, “KINASE INHIBITORS, PREPARATION METHODS AND USES THEREOF” (InventisBio Co., Ltd., priority 2022, published 2025)
Like-named read-outs stand apart in the source and are kept apart here.

Assays:
DGKz = DGKz (Homo sapiens (Human), UniProt Q13574); test: DGK ADP-Glo kinase assay (DGKz); format: biochemical; conditions: 5 nM DGKz, 15 uM ATP
Description: Luminescence was recorded using an Tecan SPARK microplate reader.

DGKa [1] = biological target: T1, DGKa (Homo sapiens (Human), UniProt P23743);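 further: biochemical DGK kinase assay, ADP-Glo luminescence from ADP made by phosphorylating 1,2-dioleoyl-sn-glycerol, 20 min compound preincubation then 40 min reaction at 25 °C, 1% DMSO control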
T1 sequence (P23743 whole entry): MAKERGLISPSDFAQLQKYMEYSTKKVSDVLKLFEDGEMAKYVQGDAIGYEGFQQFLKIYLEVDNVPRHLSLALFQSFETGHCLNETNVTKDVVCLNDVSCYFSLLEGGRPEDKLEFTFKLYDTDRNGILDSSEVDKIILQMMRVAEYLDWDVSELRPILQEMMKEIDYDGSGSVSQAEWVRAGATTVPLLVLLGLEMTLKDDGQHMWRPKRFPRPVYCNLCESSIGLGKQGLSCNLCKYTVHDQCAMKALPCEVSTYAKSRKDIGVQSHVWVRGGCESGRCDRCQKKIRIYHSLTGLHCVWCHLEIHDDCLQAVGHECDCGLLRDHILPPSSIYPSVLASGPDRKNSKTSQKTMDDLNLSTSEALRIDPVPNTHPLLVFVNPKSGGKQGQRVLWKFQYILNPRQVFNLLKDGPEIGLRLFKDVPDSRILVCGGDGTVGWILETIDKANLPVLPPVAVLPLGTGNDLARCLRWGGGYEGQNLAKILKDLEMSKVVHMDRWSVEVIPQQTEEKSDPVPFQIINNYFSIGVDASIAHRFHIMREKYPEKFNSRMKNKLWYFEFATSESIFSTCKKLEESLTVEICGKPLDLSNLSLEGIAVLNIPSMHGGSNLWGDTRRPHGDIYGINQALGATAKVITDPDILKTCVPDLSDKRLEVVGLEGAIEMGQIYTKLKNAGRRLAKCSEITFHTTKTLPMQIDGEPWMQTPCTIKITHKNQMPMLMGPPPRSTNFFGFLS
Description: (§1) The DGKa and DGKz kinase assays were performed using Promega ADP-Glo kit (Promega, Cat #V9102). One microliter test compound was added to a 384-well plate. Reactions were performed in a 5 uL volume by adding 2 uL mixture of DGK enzyme and ATP in assay buffer (50 mM MOPS pH 7.5, 100 mM NaCl, 10 mM MgCl2, 1 mM CaCl2, 0.0025% BSA, and 1 mM DTT). […] The enzyme solution was incubated with test compound at 25 ? for 20 min. […] The reaction was initiated by the addition of 2 uL of substrate solution (7 uM 1.2-dioleoyl-sn-glycerol, 5 mM octyl-b-D-glucopyranoside) in the 5 uL assay volume. The resulting mixture was incubated at 25° C. for 40 minutes. Next, 5 uL of ADP-Glo-reagent was added to the plate and incubated for 40 minutes. Then 10 uL of kinase detection reagent was added and incubated for 30 minutes. Luminescence was recorded using an Tecan SPARK microplate reader. 1% DMSO vehicle was used as control and no enzyme well was used as blank well.

PBMC = test: Human PBMC IL-2 assay; format: cell-based; conditions: anti-CD3/CD28 stimulation overnight, IL-2 level
Method in brief: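 Healthy-donor frozen PBMC were thawed, rested 4 h at 37 °C and plated at ~200,000 cells/well. Cells were preincubated 60 min at 37 °C with compound solution (10 uM to 0.6 nM, 8 points, 4-fold, as added), then stimulated overnight with anti-CD3/CD28. Supernatant IL-2 was quantified by immunoassay kit and plotted against log compound concentration.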

[2] = Human microsomal clearance assay; format: in vitro ADME; conditions: pH 7.4; for CLint scaled at 1 μM: human, liver microsomes; for half-life at 1 μM: human liver microsomes 0.5 mg/mL, 1 uM compound
Description: This study aimed to assess the metabolic stability of a compound in human liver microsomes using a microsomal clearance assay.
A mixture containing 100 mM potassium phosphate, pH 7.4, 0.5 mg/mL liver microsomes, 2 mM NADPH, and 1 μM compound were prepared and added to 96-well plate. The plates were then incubated at 37 ? for different time points (0, 5, 15, 30, 45 minutes) and the reaction was stopped with acetonitrile solution containing an internal standard. The samples were then analyzed by LC/MS/MS to determine how much of the compound remained at each time point. The elimination rate constant and half-life were calculated from the data, and the in vitro intrinsic clearance (CLint) was determined as follows: […]

Jurkat cells = test: Jurkat IL-2 assay; format: cell-based; conditions: Homo sapiens, anti-CD3/CD28 stimulation overnight, IL-2 level
Method in brief: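 Cells in RPMI-1640 with 10% FBS received compound solution (5 uM to 2.3 nM, 8 points, 3-fold dilution) for 60 minutes at 37° C. They were then stimulated overnight at 37° C. with anti-CD3/CD28 antibody. IL-2 in the supernatant was quantified by immunoassay kit and plotted against log compound concentration.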

DGKa [3] = biological target: T1, DGKa; test: biochemical
Description: as §1

Chain of DGKz (Q13574 whole entry): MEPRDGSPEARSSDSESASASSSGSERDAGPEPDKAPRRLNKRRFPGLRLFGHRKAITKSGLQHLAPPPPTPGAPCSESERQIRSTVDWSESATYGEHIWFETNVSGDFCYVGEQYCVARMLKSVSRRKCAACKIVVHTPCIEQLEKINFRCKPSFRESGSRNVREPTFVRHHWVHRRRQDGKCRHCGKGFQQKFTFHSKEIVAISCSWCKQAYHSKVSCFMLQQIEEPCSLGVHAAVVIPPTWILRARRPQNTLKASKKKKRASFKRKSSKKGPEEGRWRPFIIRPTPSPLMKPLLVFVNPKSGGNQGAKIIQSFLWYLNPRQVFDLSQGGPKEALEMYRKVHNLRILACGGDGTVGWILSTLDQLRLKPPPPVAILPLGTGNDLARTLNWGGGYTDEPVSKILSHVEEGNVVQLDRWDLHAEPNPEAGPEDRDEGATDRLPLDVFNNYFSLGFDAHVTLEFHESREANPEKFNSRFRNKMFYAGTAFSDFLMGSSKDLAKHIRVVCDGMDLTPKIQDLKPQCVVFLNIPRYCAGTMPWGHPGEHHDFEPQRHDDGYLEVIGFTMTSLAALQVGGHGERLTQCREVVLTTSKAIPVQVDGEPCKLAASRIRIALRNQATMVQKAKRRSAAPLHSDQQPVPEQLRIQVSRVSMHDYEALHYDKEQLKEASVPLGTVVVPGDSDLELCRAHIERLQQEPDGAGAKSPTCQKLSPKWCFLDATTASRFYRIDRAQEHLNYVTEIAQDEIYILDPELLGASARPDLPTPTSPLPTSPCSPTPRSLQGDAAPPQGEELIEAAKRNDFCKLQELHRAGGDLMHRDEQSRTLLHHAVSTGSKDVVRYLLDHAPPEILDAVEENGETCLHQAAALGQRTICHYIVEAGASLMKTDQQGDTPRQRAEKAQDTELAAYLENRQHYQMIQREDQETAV

Row | Structure (SMILES) | IC50 (DGKz) [µM] | IC50 (DGKa [1]) [µM] | other results
1 | CC[C@H]1CN([C@@H](CC)c2ccc(OC)cc2F)[C@H](CC)CN1c1nc2nncn2c2ccc(C#N)nc12 (stereo in doubt) [Compound 115] | 0.008 | 0.003 | –
2 | Cn1c(=O)nc(N2CCC3(CC2)CC(c2cccc(C(F)(F)F)c2)=NO3)c2nc(C#N)ccc21 [Compound 47] | 0.036 | 0.012 | –
3 | Cn1c(=O)nc(N2CCC3(CC2)COC(c2ccc(OC(F)(F)F)cc2)=N3)c2nc(Cl)ccc21 [Compound 37] | 0.475 | 0.017 | –
4 | Cn1c(=O)c(C(N)=O)c(N2CCC3(CCN(c4ccc(OC(F)(F)F)cc4)C3)CC2)c2nc(C#N)ccc21 [Compound 6] | 0.775 | 0.212 | EC50 (PBMC): 1.8 µM
5 | CC[C@H]1CN([C@H]2CCCCc3cc(C(F)(F)F)ccc32)[C@H](CC)CN1c1nc2nncn2c2ccc(C#N)nc12 [Compound 113] | 0.161 | 0.044 | –
6 | CC[C@H]1CN([C@H](CC)c2ccc(C(F)(F)F)cc2)[C@H](CC)CN1c1nc2nncn2c2ccc(C#N)nc12 [Compound 35] | 0.224 | 0.016 | –
7 | N#Cc1ccc2c(n1)c(N1CCC3(CC1)CC(c1ccc(C(F)(F)F)cc1)=NO3)nc1nncn12 [Compound 53] | 0.185 | 0.085 | –
8 | Cn1c(=O)nc(N2CCC3(CC2)COC(c2ccc(OC(F)(F)F)cc2)=N3)c2nc(C#N)ccc21 [Compound 36] | – | – | CLint scaled at 1 μM [2]: 2.7 mL/min/kg; half-life at 1 μM [2]: 10.9 h
9 | CC[C@@H]1CN2c3c(c(=O)n(C)c4ccc(C#N)nc34)CC[C@@H]2CN1[C@H](CC)c1ccc(C(F)(F)F)cc1 [Compound 332] | – | – | EC50 (PBMC): 0.064 µM; EC50 (Jurkat cells): 0.13 µM; CLint scaled at 1 μM [2]: 6.9 mL/min/kg; half-life at 1 μM [2]: 4.23 h
10 | CC[C@H]1CN([C@H](CC)c2nc(C3CC3)no2)[C@H](CC)CN1c1nc2nncn2c2ccc(C#N)nc12 [Compound 120] | 0.352 | 0.01 | –
11 | CC[C@H]1CN([C@H](CC)c2ccc(C(F)(F)F)cc2)[C@H](CC)CN1c1nc2nccn2c2ccc(C#N)nc12 [Compound 110] | 0.117 | 0.006 | –
12 | CC[C@H]1CN(C(c2ccc(S(F)(F)(F)(F)F)cc2)c2nc(C3CC3)no2)[C@H](CC)CN1c1nc(=O)n(C)c2ccc(C#N)nc12 (stereo partly drawn) [Compound 64] | 0.055 | 0.01 | –
13 | [2H]C([2H])([2H])n1c(=O)c2c(c3nc(C#N)ccc31)N1C[C@@H](CC)N([C@@H](CC)c3ccc(C(F)(F)F)cc3)C[C@H]1CO2 (stereo in doubt) [Compound 251] | – | – | EC50 (PBMC): 0.05 µM; EC50 (Jurkat cells): 0.051 µM; CLint scaled at 1 μM [2]: 8.6 mL/min/kg; half-life at 1 μM [2]: 3.38 h
14 | CC[C@H]1CN([C@H](CC)c2ccc(OC)cc2F)[C@H](CC)CN1c1nc2nncn2c2ccc(C#N)nc12 (stereo in doubt) [Compound 116] | 0.347 | 0.014 | –
15 | CC[C@@H]1CN2c3c(c(=O)n(C)c4ccc(C#N)nc34)OC[C@@H]2CN1[C@@H](CC)c1ccc(S(F)(F)(F)(F)F)cc1 (stereo in doubt) [Compound 151] | – | – | EC50 (PBMC): 0.082 µM; EC50 (Jurkat cells): 0.032 µM; CLint scaled at 1 μM [2]: 4.1 mL/min/kg; half-life at 1 μM [2]: 7.13 h
16 | CC[C@H]1CN(C(COC)c2ccc(S(F)(F)(F)(F)F)cc2)[C@H](CC)CN1c1nc(=O)n(C)c2ccc(C#N)nc12 (stereo partly drawn) [Compound 78] | 0.041 | 0.019 | –
17 | CC[C@H]1CN([C@@H]2CCCCc3cc(C(F)(F)F)ccc32)[C@H](CC)CN1c1nc(=O)n(C)c2ccc(C#N)nc12 [Compound 45] | 0.045 | – | EC50 (Jurkat cells): 0.858 µM; IC50 (DGKa [3]): 0.245 µM
18 | Cc1ccc2oc(C3CCN(c4nc(=O)n(C)c5ccc(C#N)nc45)CC3)nc2c1 [Compound 20] | 1.84 | 1.16 | –
19 | Cn1c(=O)nc(N2CCC3(CCN(c4ccc(OC(F)(F)F)cc4)C3)CC2)c2nc(C#N)ccc21 [Compound 8] | 0.547 | 0.579 | –

More lines, main results first:

Row | IC50 (DGKz) [µM] | IC50 (DGKa [1]) [µM] | Structure (SMILES) | other results
20 | > 10 | 0.005 | Cc1ccc2oc(C3CCN(c4nc(=O)n(C)c5ccc6nncn6c45)CC3)nc2c1 [Compound 22] | –
21 | 0.081 | 0.032 | CC[C@H]1CN(C(CO)c2ccc(S(F)(F)(F)(F)F)cc2)[C@H](CC)CN1c1nc(=O)n(C)c2ccc(C#N)nc12 (stereo partly drawn) [Compound 77] | –
22 | 0.004 | 0.03 | CC[C@H]1CN([C@@H]2CCCCc3cc(C(F)(F)F)ccc32)[C@H](CC)CN1c1nc2nncn2c2ccc(C#N)nc12 [Compound 114] | –
23 | 0.324 | 0.005 | CN(c1cccc(C#CC2CC2)c1)c1nc(=O)n(C)c2ccc(C#N)nc12 [Compound 46] | –
24 | 0.248 | 0.029 | N#Cc1ccc2c(n1)c(N1CCC3(CC1)CC(c1ccc(SC(F)(F)F)cc1)=NO3)nc1nncn12 [Compound 54] | –
25 | 0.303 | 0.058 | CC[C@@H]1CN(c2nc3nncn3c3ccc(C#N)nc23)[C@@H](CC)CN1C(=O)Nc1ccc(C(F)(F)F)cc1 [Compound 95] | –
26 | 0.311 | 0.003 | Cn1c(=O)nc(N2CCCc3c(C#CC4CC4)cccc32)c2nc(C#N)ccc21 [Compound 42] | –
27 | 0.04 | 0.01 | CC[C@H]1CN([C@H](c2ccc(S(F)(F)(F)(F)F)cc2)c2nc(C3CC3)cs2)[C@H](CC)CN1c1nc(=O)n(C)c2ccc(C#N)nc12 [Compound 98] | –
28 | > 10 | 6.6 | Cc1ccccc1-n1cc(C2CCN(c3nc(=O)n(C)c4ccc(C#N)nc34)CC2)cn1 [Compound 12] | –
29 | 0.041 | 0.018 | CCC(c1ccc(C23CC(C2)C3)nc1)N1C[C@H](CC)N(c2nc3nncn3c3ccc(C#N)nc23)C[C@H]1CC (stereo partly drawn) [Compound 104] | –
30 | 0.126 | 0.427 | Cn1c(=O)nc(N2CCC(Oc3ccc(OC(F)(F)F)cc3)CC2)c2nc(C#N)ccc21 [Compound 5] | EC50 (PBMC): 0.728 µM
31 | 0.071 | 0.006 | CC[C@H]1CN([C@@H](CC)c2ccc(C(F)(F)F)cc2)[C@H](CC)CN1c1nc2nccn2c2ccc(C#N)nc12 [Compound 109] | –
32 | 0.022 | 0.004 | CC[C@H]1CN([C@@H](c2ccc(S(F)(F)(F)(F)F)cc2)c2nc(C3CC3)cs2)[C@H](CC)CN1c1nc(=O)n(C)c2ccc(C#N)nc12 [Compound 99] | –
33 | > 10 | 0.019 | Cn1c(=O)c(C(N)=O)c(N2CCC3(CN(c4ccc(OC(F)(F)F)cc4)C3)C2)c2nc(C#N)ccc21 [Compound 15] | –
34 | 0.033 | 0.013 | CC[C@@H]1CN(c2nc(=O)n(C)c3ccc(C#N)nc23)[C@@H](C)CN1[C@@H](c1ccc(F)cc1)c1ccc(SC(F)(F)F)cn1 [Compound 72] | –
35 | 0.136 | 0.009 | CC[C@@H]1CN2c3c(c(=O)n(C)c4ccc(C#N)nc34)OC[C@H]2CN1[C@@H](CC)c1ccc(C(F)(F)F)cc1 [Compound 107] | –
36 | 0.021 | 0.003 | CC[C@H]1CN([C@@H](CC)c2nc(C3CC3)no2)[C@H](CC)CN1c1nc2nncn2c2ccc(C#N)nc12 [Compound 119] | –
37 | 0.242 | 0.026 | CC[C@@H]1CN2c3c(c(=O)n(C)c4ccc(C#N)nc34)OC[C@H]2CN1[C@H](CC)c1ccc(C(F)(F)F)cc1 [Compound 108] | –
38 | 0.05 | – | CC[C@H]1CN([C@@H](CC)c2ccc(S(F)(F)(F)(F)F)cc2)[C@H](CC)CN1c1nc(=O)n(C)c2ccc(C#N)nc12 [Compound 28] | CLint scaled at 1 μM [2]: 7.7 mL/min/kg; half-life at 1 μM [2]: 3.75 h; IC50 (DGKa [3]): 0.012 µM
